# Measurements from US6503881B2 (priority 1996, dated 2003).
# Like-named read-outs stand apart in the source and are kept apart here.
# Legend:
# Assay type in all cases: cell-based
# P. aeruginosa = system: P. aeruginosa
# a bacterial strain = system: a bacterial strain
# E. faecium = conditions: for MBI 26 MIC, +Teicoplanin: in combination with teicoplanin; for MIC in combination: Teicoplanin + MBI 26
# K. pneumoniae = conditions: for MIC Alone: agent alone; for MBI 26 MIC, +Erythro.: in combination with erythromycin
substance,measurement,setting,value
KWKSFIKKLTSAAKKVVTTAKPLISS [MBI 26],MIC in combination,"P. aeruginosa; P. aeruginosa PA024, pair Ceftriaxone / MBI 26",32 µg/mL
same,MIC Alone,"P. aeruginosa; P. aeruginosa PA041, agent alone",64 µg/mL
same,"MBI 26 MIC, +Erythro.","P. aeruginosa; P. aeruginosa PA041, in combination with erythromycin",32 µg/mL
same,killing in time kill assay,a bacterial strain,greater killing than either peptide or antibiotic agent alone
same,MIC Alone,"E. faecium; E. faecium 97001 VanB, agent alone",64 µg/mL
same,"MBI 26 MIC, +Teicoplanin",E. faecium; E. faecium 97001 VanB,4 µg/mL
same,MIC Alone,"E. faecium; E. faecium 97002 VanB, agent alone",64 µg/mL
same,"MBI 26 MIC, +Teicoplanin",E. faecium; E. faecium 97002 VanB,1 µg/mL
same,MIC Alone,"E. faecium; E. faecium 97003 VanB, agent alone",64 µg/mL
same,"MBI 26 MIC, +Teicoplanin",E. faecium; E. faecium 97003 VanB,1 µg/mL
same,MIC Alone,"E. faecium; E. faecium 97005 VanB, agent alone",64 µg/mL
same,"MBI 26 MIC, +Teicoplanin",E. faecium; E. faecium 97005 VanB,2 µg/mL
same,MIC Alone,"E. faecium; E. faecium 97006 VanB, agent alone",64 µg/mL
same,"MBI 26 MIC, +Teicoplanin",E. faecium; E. faecium 97006 VanB,4 µg/mL
same,MIC Alone,"E. faecium; E. faecium 97007 VanB, agent alone",64 µg/mL
same,"MBI 26 MIC, +Teicoplanin",E. faecium; E. faecium 97007 VanB,1 µg/mL
same,MIC Alone,"E. faecium; E. faecium 97008 VanB, agent alone",64 µg/mL
same,"MBI 26 MIC, +Teicoplanin",E. faecium; E. faecium 97008 VanB,4 µg/mL
same,MIC Alone,"E. faecium; E. faecium 97009 VanB, agent alone",32 µg/mL
same,"MBI 26 MIC, +Teicoplanin",E. faecium; E. faecium 97009 VanB,1 µg/mL
same,MIC Alone,"E. faecium; E. faecium 97010 VanB, agent alone",64 µg/mL
same,"MBI 26 MIC, +Teicoplanin",E. faecium; E. faecium 97010 VanB,4 µg/mL
same,MIC Alone,"E. faecium; E. faecium 97011 VanB, agent alone",64 µg/mL
same,"MBI 26 MIC, +Teicoplanin",E. faecium; E. faecium 97011 VanB,4 µg/mL
same,MIC Alone,"E. faecium; E. faecium 97012 VanB, agent alone",64 µg/mL
same,"MBI 26 MIC, +Teicoplanin",E. faecium; E. faecium 97012 VanB,4 µg/mL
same,MIC Alone,"E. faecium; E. faecium 97013 VanB, agent alone",64 µg/mL
same,"MBI 26 MIC, +Teicoplanin",E. faecium; E. faecium 97013 VanB,8 µg/mL
same,MIC Alone,"E. faecium; E. faecium 97014 VanB, agent alone",32 µg/mL
same,"MBI 26 MIC, +Teicoplanin",E. faecium; E. faecium 97014 VanB,4 µg/mL
same,MIC Alone,"E. faecium; E. faecium 97015 VanB, agent alone",64 µg/mL
same,"MBI 26 MIC, +Teicoplanin",E. faecium; E. faecium 97015 VanB,4 µg/mL
same,MIC Alone,"E. faecium; E. faecium 97016 VanB, agent alone",64 µg/mL
same,"MBI 26 MIC, +Teicoplanin",E. faecium; E. faecium 97016 VanB,4 µg/mL
same,MIC Alone,E. faecium; E. faecium 97017 VanA,64 µg/mL
same,MIC in combination,E. faecium; E. faecium 97017 VanA,4 µg/mL
same,MIC Alone,E. faecium; E. faecium 97018 VanA,64 µg/mL
same,MIC in combination,E. faecium; E. faecium 97018 VanA,8 µg/mL
same,MIC Alone,E. faecium; E. faecium 97019 VanA,64 µg/mL
same,MIC in combination,E. faecium; E. faecium 97019 VanA,16 µg/mL
same,MIC Alone,E. faecium; E. faecium 97020 VanA,64 µg/mL
same,MIC in combination,E. faecium; E. faecium 97020 VanA,16 µg/mL
same,MIC Alone,E. faecium; E. faecium 97021 VanA,64 µg/mL
same,MIC in combination,E. faecium; E. faecium 97021 VanA,32 µg/mL
same,MIC Alone,E. faecium; E. faecium 97022 VanA,64 µg/mL
same,MIC in combination,E. faecium; E. faecium 97022 VanA,4 µg/mL
same,MIC Alone,E. faecium; E. faecium 97023 VanA,64 µg/mL
same,MIC in combination,E. faecium; E. faecium 97023 VanA,4 µg/mL
same,MIC Alone,E. faecium; E. faecium 97024 VanA,64 µg/mL
same,MIC in combination,E. faecium; E. faecium 97024 VanA,8 µg/mL
same,MIC Alone,E. faecium; E. faecium 97025 VanA,16 µg/mL
same,MIC in combination,E. faecium; E. faecium 97025 VanA,4 µg/mL
same,MIC Alone,E. faecium; E. faecium 97026 VanA,64 µg/mL
same,MIC in combination,E. faecium; E. faecium 97026 VanA,16 µg/mL
same,MIC Alone,E. faecium; E. faecium 97027 VanA,64 µg/mL
same,MIC in combination,E. faecium; E. faecium 97027 VanA,8 µg/mL
same,MIC Alone,E. faecium; E. faecium 97028 VanA,8 µg/mL
same,MIC in combination,E. faecium; E. faecium 97028 VanA,8 µg/mL
same,MIC Alone,E. faecium; E. faecium 97029 VanA,64 µg/mL
same,MIC in combination,E. faecium; E. faecium 97029 VanA,8 µg/mL
same,MIC Alone,E. faecium; E. faecium 97030 VanA,64 µg/mL
same,MIC in combination,E. faecium; E. faecium 97030 VanA,32 µg/mL
same,MIC Alone,E. faecium; E. faecium 97031 VanA,64 µg/mL
same,MIC in combination,E. faecium; E. faecium 97031 VanA,32 µg/mL
same,MIC Alone,E. faecium; E. faecium 97032 VanA,64 µg/mL
same,MIC in combination,E. faecium; E. faecium 97032 VanA,8 µg/mL
same,MIC Alone,E. faecium; E. faecium 97033 VanA,64 µg/mL
same,MIC in combination,E. faecium; E. faecium 97033 VanA,8 µg/mL
same,MIC Alone,E. faecium; E. faecium 97034 VanA,64 µg/mL
same,MIC in combination,E. faecium; E. faecium 97034 VanA,8 µg/mL
same,MIC Alone,E. faecium; E. faecium 97035 VanA,64 µg/mL
same,MIC in combination,E. faecium; E. faecium 97035 VanA,0.5 µg/mL
same,MIC Alone,E. faecium; E. faecium 97036 VanA,8 µg/mL
same,MIC in combination,E. faecium; E. faecium 97036 VanA,4 µg/mL
same,MIC Alone,K. pneumoniae; K. pneumoniae KP001,16 µg/mL
same,"MBI 26 MIC, +Erythro.",K. pneumoniae; K. pneumoniae KP001,8 µg/mL
same,MIC Alone,K. pneumoniae; K. pneumoniae KP002,64 µg/mL
same,"MBI 26 MIC, +Erythro.",K. pneumoniae; K. pneumoniae KP002,32 µg/mL
